From ChEMBL document CHEMBL3124747, “Formosusin A, a novel specific inhibitor of mammalian DNA polymerase β from the fungus Paecilomyces formosus” (Bioorg Med Chem, 2014)

What was measured:
[1] = target: T1, DNA polymerase kappa (Homo sapiens, UniProt Q9UBT6); test: Inhibition of C-terminal His-6-tagged human DNA polymerase kappa expressed in Escherichia coli assessed as inhibition of incorporation of dTTP into poly(dA)/oligo(dT)18 after 60 mins
T1 sequence (Q9UBT6 whole entry): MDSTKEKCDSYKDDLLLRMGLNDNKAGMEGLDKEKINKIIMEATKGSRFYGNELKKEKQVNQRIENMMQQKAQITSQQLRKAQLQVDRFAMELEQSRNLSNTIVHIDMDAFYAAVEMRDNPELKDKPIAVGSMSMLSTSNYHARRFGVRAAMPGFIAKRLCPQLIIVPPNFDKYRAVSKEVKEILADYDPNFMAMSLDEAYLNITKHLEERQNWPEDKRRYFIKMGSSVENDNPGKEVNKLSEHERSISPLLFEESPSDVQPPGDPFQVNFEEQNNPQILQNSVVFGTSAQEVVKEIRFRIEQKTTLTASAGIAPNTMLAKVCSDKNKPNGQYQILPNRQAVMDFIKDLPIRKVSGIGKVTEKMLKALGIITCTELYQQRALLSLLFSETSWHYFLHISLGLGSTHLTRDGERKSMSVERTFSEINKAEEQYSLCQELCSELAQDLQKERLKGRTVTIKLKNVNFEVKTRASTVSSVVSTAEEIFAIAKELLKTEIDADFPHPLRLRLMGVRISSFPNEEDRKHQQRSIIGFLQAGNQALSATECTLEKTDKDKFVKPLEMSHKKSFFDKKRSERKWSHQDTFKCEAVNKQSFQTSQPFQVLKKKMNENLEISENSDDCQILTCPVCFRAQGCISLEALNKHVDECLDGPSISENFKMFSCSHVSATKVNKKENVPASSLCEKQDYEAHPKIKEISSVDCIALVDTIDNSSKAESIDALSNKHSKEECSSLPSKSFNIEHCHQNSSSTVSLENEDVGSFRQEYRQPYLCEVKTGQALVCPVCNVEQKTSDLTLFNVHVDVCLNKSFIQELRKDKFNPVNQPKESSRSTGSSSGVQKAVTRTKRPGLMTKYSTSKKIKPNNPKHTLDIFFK

[2] = Inhibition of fruit fly DNA polymerase epsilon assessed as inhibition of incorporation of dTTP into poly(dA)/oligo(dT)18 after 60 mins; design: species or system Drosophila melanogaster
[3] = Inhibition of cauliflower DNA polymerase alpha assessed as inhibition of incorporation of dTTP into poly(dA)/oligo(dT)18 after 60 mins; design: species or system Brassica oleracea var. botrytis
[4] = target: Human immunodeficiency virus type 1 reverse transcriptase (Human immunodeficiency virus 1, UniProt Q72547); test: Inhibition of HIV-1 reverse transcriptase assessed as inhibition of incorporation of dTTP into poly(rA)/oligo(dT)18 after 60 mins
[5] = Inhibition of Escherichia coli polymerase DNA polymerase 1 klenow fragment assessed as inhibition of incorporation of dTTP into poly(dA)/oligo(dT)18 after 60 mins
[6] = target: DNA nucleotidylexotransferase (Bos taurus, UniProt P06526); test: Inhibition of calf thymus TdT assessed as inhibition of incorporation of dTTP into oligo(dT)18(3'OH) after 60 mins
[7] = target: DNA polymerase beta (Rattus norvegicus, UniProt P06766); test: Inhibition of recombinant rat DNA polymerase beta expressed in Escherichia coli JMpbeta5 assessed as inhibition of incorporation of dTTP into poly(dA)/oligo(dT)18 after 60 mins
[8] = Inhibition of cherry salmon DNA polymerase delta assessed as inhibition of incorporation of dTTP into poly(dA)/oligo(dT)18 after 60 mins; design: species or system Oncorhynchus masou
[9] = target: T2, DNA polymerase lambda (Homo sapiens, UniProt Q9UGP5); test: Inhibition of human recombinant His-tagged DNA polymerase lambda expressed in Escherichia coli assessed as inhibition of incorporation of dTTP into poly(dA)/oligo(dT)18 after 60 mins
T2 sequence (Q9UGP5 whole entry): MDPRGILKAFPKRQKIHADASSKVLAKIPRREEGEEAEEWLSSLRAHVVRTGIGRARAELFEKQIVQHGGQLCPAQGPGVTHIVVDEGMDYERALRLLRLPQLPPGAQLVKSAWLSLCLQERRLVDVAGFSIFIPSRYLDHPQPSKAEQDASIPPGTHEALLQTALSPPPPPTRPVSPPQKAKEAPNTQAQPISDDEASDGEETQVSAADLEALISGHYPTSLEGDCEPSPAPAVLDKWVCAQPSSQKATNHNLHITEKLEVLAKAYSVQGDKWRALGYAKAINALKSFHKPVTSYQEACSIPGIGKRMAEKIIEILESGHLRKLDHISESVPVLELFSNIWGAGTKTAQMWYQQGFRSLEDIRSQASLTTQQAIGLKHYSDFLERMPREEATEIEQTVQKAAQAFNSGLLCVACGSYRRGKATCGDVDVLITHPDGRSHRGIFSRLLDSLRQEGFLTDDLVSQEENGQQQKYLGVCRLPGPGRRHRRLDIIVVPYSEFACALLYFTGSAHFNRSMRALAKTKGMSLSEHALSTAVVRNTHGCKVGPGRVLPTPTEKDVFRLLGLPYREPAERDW

[10] = target: Deoxyribonuclease-1 (Bos taurus, UniProt P00639); test: Inhibition of bovine deoxyribonuclease 1 assessed as inhibition of incorporation of dTTP into poly(dA)/oligo(dT)18 after 60 mins
[11] = target: T3, DNA polymerase lambda (Mus musculus, UniProt Q9QXE2); test: Inhibition of mouse DNA polymerase lambda assessed as inhibition of incorporation of dTTP into poly(dA)/oligo(dT)18 after 60 mins
T3 sequence (Q9QXE2 whole entry): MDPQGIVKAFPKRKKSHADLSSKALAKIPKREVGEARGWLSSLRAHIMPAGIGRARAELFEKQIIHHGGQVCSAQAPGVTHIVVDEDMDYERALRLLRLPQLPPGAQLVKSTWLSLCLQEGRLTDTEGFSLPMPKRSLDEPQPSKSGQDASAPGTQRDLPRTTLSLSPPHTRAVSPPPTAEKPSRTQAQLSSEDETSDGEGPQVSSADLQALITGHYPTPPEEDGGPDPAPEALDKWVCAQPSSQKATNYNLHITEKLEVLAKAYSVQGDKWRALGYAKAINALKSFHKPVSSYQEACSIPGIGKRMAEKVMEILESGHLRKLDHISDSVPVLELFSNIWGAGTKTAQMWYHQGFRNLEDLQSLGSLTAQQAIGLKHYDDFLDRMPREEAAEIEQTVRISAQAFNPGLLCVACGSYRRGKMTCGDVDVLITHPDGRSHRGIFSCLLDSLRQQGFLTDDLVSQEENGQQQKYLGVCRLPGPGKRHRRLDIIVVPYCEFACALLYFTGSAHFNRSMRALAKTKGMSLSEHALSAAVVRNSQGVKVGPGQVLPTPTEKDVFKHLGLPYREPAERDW

[12] = Inhibition of C-terminal His-6-tagged L. cv.Nipponbare rice recombinant DNA polymerase lambda expressed in Escherichia coli assessed as inhibition of incorporation of dTTP into poly(dA)/oligo(dT)18 after 60 mins; design: species or system Oryza sativa

Sequence of Deoxyribonuclease-1 (P00639 whole entry): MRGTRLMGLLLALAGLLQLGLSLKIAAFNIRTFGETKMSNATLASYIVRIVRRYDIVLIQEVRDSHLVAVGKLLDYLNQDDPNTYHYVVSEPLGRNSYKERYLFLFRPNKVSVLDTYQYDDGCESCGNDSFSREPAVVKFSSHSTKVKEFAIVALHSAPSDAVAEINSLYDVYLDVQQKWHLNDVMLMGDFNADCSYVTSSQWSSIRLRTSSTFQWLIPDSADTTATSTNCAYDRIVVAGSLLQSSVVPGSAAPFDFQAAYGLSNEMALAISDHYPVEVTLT
Sequence of DNA nucleotidylexotransferase (P06526 whole entry): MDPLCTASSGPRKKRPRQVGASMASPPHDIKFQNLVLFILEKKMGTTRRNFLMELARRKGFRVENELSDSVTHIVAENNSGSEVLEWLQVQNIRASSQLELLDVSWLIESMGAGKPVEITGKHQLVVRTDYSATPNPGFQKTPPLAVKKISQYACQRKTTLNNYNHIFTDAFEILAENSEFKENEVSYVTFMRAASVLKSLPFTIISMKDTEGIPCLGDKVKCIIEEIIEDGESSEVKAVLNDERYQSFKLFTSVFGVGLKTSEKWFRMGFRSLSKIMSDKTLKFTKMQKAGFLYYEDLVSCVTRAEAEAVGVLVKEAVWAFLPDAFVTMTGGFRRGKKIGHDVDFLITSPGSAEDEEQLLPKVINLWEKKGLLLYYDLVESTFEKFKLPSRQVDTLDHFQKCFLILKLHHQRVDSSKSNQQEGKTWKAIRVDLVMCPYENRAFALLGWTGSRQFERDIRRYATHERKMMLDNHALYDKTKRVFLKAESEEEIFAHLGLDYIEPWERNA

Compound | IC50 [1] | IC50 [2] | IC50 [3] | IC50 [4] | IC50 [5] | IC50 [6] | IC50 [7] | IC50 [8] | IC50 [9] | IC50 [10] | IC50 [11] | IC50 [12]
CC(/C=C/CCC(=O)N1CCCC1=O)=C\C1CCCCO1 (stereo not drawn) | > 200 µM | > 200 µM | > 200 µM | > 200 µM | > 200 µM | > 200 µM | > 200 µM | > 200 µM | > 200 µM | > 200 µM | > 200 µM | > 200 µM
CCCC[C@@H](O)/C=C(C)/C=C/C=C\C(=O)N1CCCC1=O | > 200 µM | > 200 µM | > 200 µM | > 200 µM | > 200 µM | > 200 µM | 35.6 µM | > 200 µM | > 200 µM | > 200 µM | > 200 µM | > 200 µM
CCCCC(=O)/C=C(C)/C=C/CCC(=O)N1CCCC1=O | > 200 µM | > 200 µM | > 200 µM | > 200 µM | > 200 µM | > 200 µM | > 200 µM | > 200 µM | > 200 µM | > 200 µM | > 200 µM | > 200 µM
CCCC[C@@H](O)/C=C(C)/C=C/C=C/C(=O)N1CCCC1=O [PECILOCIN] | > 200 µM | > 200 µM | > 200 µM | > 200 µM | > 200 µM | > 200 µM | > 200 µM | > 200 µM | > 200 µM | > 200 µM | > 200 µM | > 200 µM
